In test [1] the test system is tumor growth in xenograft models. As to conditions: cited from earlier work.
In test [2] the test system is PR cellular signaling pathway. Nature of the test: PR pathway activity inferred by Bayesian network models, ishikawa IKPR-AB36 endometrium cell line (GSE29435). The test is classed as cell-based. The conditions noted are these: PR-A, PR-B and PR-A&B models; 1 nM, 48h; versus control treated samples. The source says:
(§1) Herein, an exemplary Bayesian network model as shown in FIG. 1 was used to model the transcriptional program of the PR cellular signaling pathway in a simple manner. The model consists of three types of nodes: (a) a transcription factor (TF) element (with states “absent” and “present”) in a first layer 1; (b) target genes TG1, TG2, TGn (with states “down” and “up”) in a second layer 2, and; (c) measurement nodes linked to the expression levels of the target genes in a third layer 3. These can be microarray probesets PS1,1, PS1,2, PS1,3, PS2,1, PSn,1, PSn,m (with states “low” and “high”), as preferably used herein, but could also be other gene expression measurements such as RNAseq or RT-qPCR.
(§2) Once the exemplary Bayesian network model is built and calibrated (see below), the model can be used on microarray data of a new sample by entering the probeset measurements as observations in the third layer 3, and inferring backwards in the model what the probability must have been for the TF element to be “present”. Here, “present” is considered to be the phenomenon that the TF element is bound to the DNA and is controlling transcription of the cellular signaling pathway's target genes, and “absent” the case that the TF element is not controlling transcription.
(§3) The models are identified by their target gene list and calibration set. […]

Test [3] relates to PR cellular signaling pathway. Nature of the test: PR pathway activity inferred by Bayesian network models, PR-B expressing hMEC breast cell line (GSE24468). The conditions noted are these: PR-A, PR-B and PR-A&B models; 10 nM, 16h; versus control treated samples. The test is classed as cell-based.
Source text: as §1, §2, §3

Test [4] relates to PR-B cellular signaling pathway. Nature of the test: PR-B pathway activity in paired pre/post letrozole treatment breast cancer samples (GSE10281). As to conditions: ER positive breast cancer patients, 3 months neoadjuvant treatment. The test is classed as in vivo, human.
Source text: as §1, §2, §3

As to `CC(=O)[C@H]1CC[C@H]2[C@@H]3CCC4=CC(=O)CC[C@]4(C)[C@H]3CC[C@]12C` [progesterone, Progesterone], in test [1], the “Effect over tamoxifen regarding controlling tumor growth” value is “additive effect”. Regarding `CC(=O)O[C@]1(C(C)=O)CC[C@H]2[C@@H]3C[C@H](C)C4=CC(=O)CC[C@]4(C)[C@H]3CC[C@@]21C` [MPA, medroxyprogesterone acetate], the “PR cellular signaling pathway activity levels (odds PR on:off)” value in test [2] was “significantly higher”. In the case of `CCC(=O)[C@@]1(C)CC[C@H]2[C@@H]3CCC4=CC(=O)CCC4=C3CC[C@@]21C` [R5020, promegestone], the “PR cellular signaling pathway activity levels” value in test [3] is “significantly higher”. For the compound `N#Cc1ccc(C(c2ccc(C#N)cc2)n2cncn2)cc1` [letrozole], the “Normalized PR-B cellular signaling pathway activity levels, post vs. pre treatment” value in test [4] (non-responders) is on record as “remain similar to pre-treatment”. The “Mean normalized PR-B cellular signaling pathway activity, post vs. pre treatment” value in test [4] (responders) is recorded as “goes up”.

These data come from patent publication US20230071390A1, “ASSESSMENT OF PR CELLULAR SIGNALING PATHWAY ACTIVITY USING MATHEMATICAL MODELLING OF TARGET GENE EXPRESSION” (InnoSIGN B.V., priority 2019, published 2023).
